Publication PMC3740339 (Neurotoxicity research, 2009)

Target: tau (htau40), synthetic filaments (Homo sapiens, UniProt P10636)
Assay: Thioflavin S fluorescence displacement from synthetic htau40 filaments
Type: binding

Sequence of tau (htau40), synthetic filaments (P10636 1-441 isoform P10636-8): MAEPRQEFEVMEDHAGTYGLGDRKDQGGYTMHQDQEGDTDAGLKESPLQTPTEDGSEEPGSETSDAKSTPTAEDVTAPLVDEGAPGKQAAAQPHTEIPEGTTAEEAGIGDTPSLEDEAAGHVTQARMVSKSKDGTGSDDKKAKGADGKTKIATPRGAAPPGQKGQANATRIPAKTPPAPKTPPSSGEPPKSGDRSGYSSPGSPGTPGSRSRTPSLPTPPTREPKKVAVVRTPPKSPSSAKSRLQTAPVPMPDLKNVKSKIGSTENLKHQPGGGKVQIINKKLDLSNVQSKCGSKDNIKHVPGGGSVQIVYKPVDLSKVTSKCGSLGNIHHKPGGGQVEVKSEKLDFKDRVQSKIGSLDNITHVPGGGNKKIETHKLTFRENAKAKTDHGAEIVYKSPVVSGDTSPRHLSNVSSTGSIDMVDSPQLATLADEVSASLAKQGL

`COc1ccc2nc(/N=N/c3ccc(N(C)C)cc3)sc2c1` [N3, (E)-2-[[4-(dimethylamino)phenyl]azo]-6-methoxybenzothiazole] gave an AC50 of 36 ± 6 nM.
